“And” between values parts separate entries of the source, which are not always exact repeats. Equal entries are not always repeated. Where two headings read alike, the source gives them in different places.
Columns and labels:
[1] = Plasma milrinone levels (HPLC) during inhaled milrinone after CF-LVAD implantation; assay type: in vivo, human; settings: for concentration at 0 h / concentration at 1 h / concentration at 4 h / concentration at 8 h / concentration at 12 h / concentration at 24 h: human, plasma, inhaled, 6 mg/h
Method: Blood samples to determine plasma milrinone levels were obtained at baseline, 1, 4, 8, 12 and 24 hours after initiation of inhaled milrinone. Plasma milrinone levels were determined by ultra-violet high liquid chromatography (HPLC) method [14].
Delivery of inhaled milrinone was initiated five minutes before the first weaning attempt from cardiopulmonary bypass after LVAD implantation in the operating suite. […] Prior to initiation of inhaled milrinone, blood samples were obtained and analyzed for baseline plasma levels of milrinone. Patient arrival in the ICU immediately after LVAD implantation was defined as ‘time zero.’ Further blood samples to determine plasma milrinone levels were obtained at 1, 4, 8, 12 and 24 hours after arrival to the ICU. […] Patients received inhaled milrinone for a maximum of 24 hours or until the patient was extubated (if less than 24 hours).

[2] = tested on: post-operative CF-LVAD patients; test: Perioperative hemodynamics (right heart catheterization / indwelling pulmonary artery catheter) with inhaled milrinone; assay type: in vivo, human
Method: (§1) Methods. The present inventors evaluated fixed dose nebulized iMil delivered into a ventilator circuit for 24 hours in 10 post-operative CF-LVAD (HeartMate-II=10) patients. Tolerability (arrhythmias, hypotension and hypersensitivity reaction), efficacy (hemodynamic), pharmacokinetics (plasma milrinone levels) and cost data were collected.
(§2) Secondary end points were designed to assess the efficacy, cost effectiveness and pharmacokinetic profile of inhaled milrinone therapy. Efficacy endpoints included hospital and intensive care unit (ICU) length of stay, days on inotropes, mortality at 30 days and changes in right ventricular stroke work index (RSVWi) and right heart catheterization and echocardiographic parameters from baseline values. Right heart catheterization was performed during the hospitalization before LVAD implantation and included the following parameters: right atrial pressure (RAP), mean pulmonary artery pressure (mPAP), pulmonary artery systolic pressure (PASP), cardiac index (CI) and cardiac output (CO). Echocardiographic data was collected retrospectively from echocardiograms closest to LVAD implantation date (studies performed >1 month before surgery were not included) and prospectively obtained within 72 hours after LVAD implantation. Echocardiographic parameters included: left ventricular end diastolic volume (LVEDV), left ventricular end diastolic dimension (LVEDd), cardiac output (CO), PASP, qualitative RV function, and tricuspid annular plane systolic excursion (TAPSE).
Delivery of inhaled milrinone was initiated five minutes before the first weaning attempt from cardiopulmonary bypass after LVAD implantation in the operating suite. Intraoperative transesophageal echocardiography was performed and analyzed by a single cardiac anesthesiologist, certified in the interpretation of intraoperative echocardiography. Prior to initiation of inhaled milrinone, blood samples were obtained and analyzed for baseline plasma levels of milrinone. Patient arrival in the ICU immediately after LVAD implantation was defined as ‘time zero.’ Further blood samples to determine plasma milrinone levels were obtained at 1, 4, 8, 12 and 24 hours after arrival to the ICU. Hemodynamic values from indwelling pulmonary artery catheter and routine vital signs were also obtained at 1, 4, 8, 12 and 24 hour intervals. Patients received inhaled milrinone for a maximum of 24 hours or until the patient was extubated (if less than 24 hours). Final hemodynamic values were obtained 1 hour after extubation or cessation of inhaled milrinone therapy. All patients underwent a transthoracic echocardiogram 48-72 hours after cessation of inhaled milrinone.

[3] = tested on: post-operative CF-LVAD patients; test: Tolerability / safety primary end point of inhaled milrinone (arrhythmias, hypotension, hypersensitivity, death); assay type: in vivo; settings: for Death while receiving inhaled milrinone therapy: 10 patients
Method: as §1
The primary end point was safety, which included documentation of 1) new atrial arrhythmias, lasting greater than 30 seconds or resulting in hemodynamic instability (mean arterial pressure (MAP)<60 mmHg or requiring medical intervention) 2) sustained ventricular tachycardia (VT) lasting greater than 30 seconds, not related to an LVAD suction event or any ventricular arrhythmia resulting in hemodynamic instability (sustained hypotension with a MAP <60 mmHg not related to secondary causes such as acute blood loss or tamponade) and 3) hypersensitivity reaction to milrinone leading to systemic hypotension (MAP<60 mmHg or requiring medical intervention), bronchospasm or rash 4) Death by 30 days.

[4] = tested on: post-operative CF-LVAD patients; test: Echocardiographic parameters before vs after LVAD implantation with inhaled milrinone; assay type: in vivo, human
Method: Secondary end points were designed to assess the efficacy, cost effectiveness and pharmacokinetic profile of inhaled milrinone therapy. […] Right heart catheterization was performed during the hospitalization before LVAD implantation and included the following parameters: right atrial pressure (RAP), mean pulmonary artery pressure (mPAP), pulmonary artery systolic pressure (PASP), cardiac index (CI) and cardiac output (CO). […] Echocardiographic parameters included: left ventricular end diastolic volume (LVEDV), left ventricular end diastolic dimension (LVEDd), cardiac output (CO), PASP, qualitative RV function, and tricuspid annular plane systolic excursion (TAPSE). Delivery of inhaled milrinone was initiated five minutes before the first weaning attempt from cardiopulmonary bypass after LVAD implantation in the operating suite. Intraoperative transesophageal echocardiography was performed and analyzed by a single cardiac anesthesiologist, certified in the interpretation of intraoperative echocardiography. Prior to initiation of inhaled milrinone, blood samples were obtained and analyzed for baseline plasma levels of milrinone. […] All patients underwent a transthoracic echocardiogram 48-72 hours after cessation of inhaled milrinone.

[5] = tested on: post-operative CF-LVAD patients; test: Hospital and ICU length of stay, days on inotropes; assay type: in vivo, human; settings: inhaled milrinone group
Method: as §2

[6] = Characterization of inhaled milrinone: nebulization degradation profile (mass spectrometry); assay type: physicochemical; settings: vibrating mesh nebulizer connected to a mechanical ventilator circuit
Method: Inhaled milrinone validation studies were performed in order to characterize inhaled milrinone aerosol particle size, evaluate nebulization degradation profile, and quantify drug delivery using a vibrating mesh nebulizer connected to a mechanical ventilator circuit. […] A pharmaceutical grade impactor was used to determine median aerodynamic particle size and HPLC was used to determine the amount of milrinone collected at the distal end of the experimental endotracheal tube [15]. Based on this analysis, we prepared a solution of milrinone diluted in 0.9% saline to a final concentration of 0.5 mg/ml to be delivered via continuous infusion by an Alaris® infusion pump set at a fixed rate of 12 ml/hr connected to an Areogen Solo (Aeroneb,® Galway, Ireland) vibrating mesh nebulizer and Aeroneb Pro-X nebulizer control unit (Aerogen, Galway, Ireland). The nebulizer was connected to a mechanical ventilator (Servo-I, Maquet Inc. Wayne N.J.) with a dual heated wire ventilator circuit (Teleflex Hudson RCI, Research Triangle Park, N.C.) proximal to the heated humidifier (Teleflex Hudson Neptune, Research Triangle Park, N.C.). Despite continuous nebulization, delivery of the aerosolized drug product occurred in an ‘intermittent-continuous’ fashion based on the mechanical ventilator respiratory rate. All inhaled milrinone product was administered by a licensed respiratory therapist.

[7] = literature refs [17, 18]; cited from earlier work
[8] = while on inhaled milrinone therapy, p<0.009

## Cc1[nH]c(=O)c(C#N)cc1-c1ccncc1 [inhaled milrinone, milrinone]
[1]; baseline, fixed dose nebulized iMil, 10 post-operative CF-LVAD patients
  Mean plasma milrinone levels at baseline: 74.2 ± 35.4 ng/mL
[1]; Table 3 mean of patients, 0 hrs, read-out: Plasma milrinone level, Mean, 0 hrs
  concentration at 0 h: 114 ng/mL
[1]; Table 3 mean of patients, 1 hrs, read-out: Plasma milrinone level, Mean, 1 hrs
  concentration at 1 h: 133 ng/mL
[1]; Table 3 mean of patients, 4 hrs, read-out: Plasma milrinone level, Mean, 4 hrs
  concentration at 4 h: 149 ng/mL
[1]; Table 3 mean of patients, 8 hrs, read-out: Plasma milrinone level, Mean, 8 hrs
  concentration at 8 h: 213 ng/mL
[1]; Table 3 mean of patients, 12 hrs, read-out: Plasma milrinone level, Mean, 12 hrs
  concentration at 12 h: 176 ng/mL
[1]; Table 3 mean of patients, 24 hrs, read-out: Plasma milrinone level, Mean, 24 hrs
  concentration at 24 h: 173 ng/mL
[1]; Table 3 median of patients, 0 hrs, read-out: Plasma milrinone level, Median, 0 hrs
  concentration at 0 h: 75 ng/mL
[1]; Table 3 median of patients, 1 hrs, read-out: Plasma milrinone level, Median, 1 hrs
  concentration at 1 h: 114 ng/mL
[1]; Table 3 median of patients, 4 hrs, read-out: Plasma milrinone level, Median, 4 hrs
  concentration at 4 h: 117 ng/mL
[1]; Table 3 median of patients, 8 hrs, read-out: Plasma milrinone level, Median, 8 hrs
  concentration at 8 h: 227 ng/mL
[1]; Table 3 median of patients, 12 hrs, read-out: Plasma milrinone level, Median, 12 hrs
  concentration at 12 h: 160 ng/mL
[1]; Table 3 median of patients, 24 hrs, read-out: Plasma milrinone level, Median, 24 hrs
  concentration at 24 h: 137 ng/mL
[1]; 1 hour, read-out: Mean plasma milrinone levels at 1 hour
  concentration at 1 h: 111 ± 70.9 ng/mL
[1]; 4 hour, read-out: Mean plasma milrinone levels at 4 hour
  concentration at 4 h: 136 ± 41.5 ng/mL
[1]; 8 hour, read-out: Mean plasma milrinone levels at 8 hour
  concentration at 8 h: 205 ± 86.7 ng/mL
[1]; 12 hour, read-out: Mean plasma milrinone levels at 12 hour
  concentration at 12 h: 177 ± 61.3 ng/mL
[1]; 24 hour, read-out: Mean plasma milrinone levels at 24 hour
  concentration at 24 h: 188 ± 106 ng/mL
[1]; individual patients 1-10, 0 hrs, inhaled milrinone 0.5 mg/ml at 12 ml/hr, prior IV milrinone stopped 6 h (Patient 1) or >12 h before surgery
  Plasma milrinone level, 0 hrs: 69.93 ng/mL and 65.54 ng/mL and 87.08 ng/mL and 138.22 ng/mL and 392.92 ng/mL and 20.85 ng/mL and 80.03 ng/mL and 57.67 ng/mL
[1]; individual patients 1-10, 1 hrs, continuous inhaled milrinone 0.5 mg/ml at 12 ml/hr
  Plasma milrinone level, 1 hrs: 239.86 ng/mL and 115.38 ng/mL and 106.94 ng/mL and 111.96 ng/mL and 12.54 ng/mL and 157.04 ng/mL and 326.72 ng/mL and 81.31 ng/mL and 18.53 ng/mL and 158.4 ng/mL
[1]; individual patients 1-10, 4 hrs, continuous inhaled milrinone
  Plasma milrinone level, 4 hrs: 113.74 ng/mL and 112.71 ng/mL and 114.96 ng/mL and 92.16 ng/mL and 112.06 ng/mL and 188.04 ng/mL and 267.11 ng/mL and 154.31 ng/mL and 118.34 ng/mL and 216.26 ng/mL
[1]; individual patients 1-10, 8 hrs, continuous inhaled milrinone
  Plasma milrinone level, 8 hrs: 268.28 ng/mL and 115.66 ng/mL and 134 ng/mL and 273.14 ng/mL and 91.67 ng/mL and 349.39 ng/mL and 284.52 ng/mL and 158.8 ng/mL and 197.89 ng/mL and 255.72 ng/mL
[1]; individual patients 1-10, 12 hrs, continuous inhaled milrinone
  Plasma milrinone level, 12 hrs: 133.77 ng/mL and 152.27 ng/mL and 248.58 ng/mL and 254.31 ng/mL and 89.91 ng/mL and 167.3 ng/mL and 153.12 ng/mL and 205.26 ng/mL
[1]; individual patients 1-10, 24 hrs, continuous inhaled milrinone
  Plasma milrinone level, 24 hrs: 117.04 ng/mL and 364.15 ng/mL and 101.94 ng/mL and 100.88 ng/mL and 156.98 ng/mL and 197.73 ng/mL
[1]; inhaled milrinone therapy, statement in words
  Plasma milrinone levels during inhaled milrinone therapy (within the accepted therapeutic milrinone range): 100 to 300 ng/mL
[2]; 1 hour after cessation of inhaled milrinone, Pre-VAD RHC 13.75
  Right Atrial Pressure, mean, Post milrinone: 25.75 mmHg
[2]; 1 hour after cessation, Pre-VAD RHC 39.5
  Mean Pulmonary Artery Pressure, mean, Post milrinone: 27 mmHg
[2]; 1 hour after cessation, Pre-VAD RHC 56.33
  Pulmonary Artery Systolic Pressure, mean, Post milrinone: 38.75 mmHg
[2]; ICU arrival after LVAD implantation, inhaled milrinone started before weaning from bypass, Pre-VAD RHC 13.75
  Right Atrial Pressure, mean, ICU arrival: 13.33 mmHg
[2]; ICU arrival, Pre-VAD RHC 39.5
  Mean Pulmonary Artery Pressure, mean, ICU arrival: 28.5 mmHg
[2]; ICU arrival, Pre-VAD RHC 56.33
  Pulmonary Artery Systolic Pressure, mean, ICU arrival: 36.00 mmHg
[2]; during inhaled milrinone, Pre-VAD RHC 13.75
  Right Atrial Pressure, Mean on milrinone: 13.53 mmHg
[2]; during inhaled milrinone, Pre-VAD RHC 39.5
  Mean Pulmonary Artery Pressure, Mean on milrinone: 25.88 mmHg
[2]; during inhaled milrinone, Pre-VAD RHC 56.33
  Pulmonary Artery Systolic Pressure, Mean on milrinone: 36.25 mmHg
[2]; p=0.017
  Invasive mean pulmonary artery pressure from baseline to during iMil therapy: improved
[2]; preoperative mean 571, p=0.179
  RVSWi, mean, 1 hour after milrinone cessation: 383 mmHg-mL/m^2
[2]; preoperative median 453, p=0.179
  RVSWi, median, 1 hour after milrinone cessation: 326 mmHg-mL/m^2
[3]
  Death while receiving inhaled milrinone therapy: No deaths occurred
[3]; listed as iMil
  Death while receiving inhaled milrinone therapy: not observed
[3]; human, in vivo
  Ventricular tachycardia events, number (%): 3 (30%)
[3]; human, in vivo, 24 h
  Non-sustained VT, number of patients/events: 1
  Sustained VT, number of patients/events: 2
[3]; institutional 30 day death rate 12% (12/102), p=0.60
  Deaths in the study group 30 days after CF-LVAD implantation: 0/10
[3]; n=3 of 10, INTERMACS data base 36%, p=0.99
  Rate of ventricular arrhythmias during inhaled milrinone therapy: 30%
[3]; within hours of LVAD implantation, no absolute cause identified
  Patients requiring veno-arterial ECMO support: 1
[4]; p=0.347
  Qualitative RV function after LVAD implantation vs pre-LVAD implant: not significantly different
[4]; p=0.846
  TAPSE after LVAD implantation vs pre-LVAD implant: not significantly different
[4]; [8]
  LVED volume (echocardiography) after LVAD implantation vs pre-LVAD implant: significant decreases
  LVIDd (echocardiography) after LVAD implantation vs pre-LVAD implant: significant decreases
  PASP (echocardiography) after LVAD implantation vs pre-LVAD implant: significant decreases
[5]; institutional 5 days, p=0.49
  Median ICU length of stay: 5 days
[5]; institutional 6 days, p=0.08
  Median total days on inotrope support: 9 days
[5]; institutional 28 days, p=0.26
  Median total hospital length of stay: 33 days
[6]
  New drug formation or degradation products after nebulization (mass spectrometry): did not identify new drug formation or degradation products
[7]
  Accepted therapeutic range of plasma milrinone: 100 to 300 ng/mL

From patent US20220401360A1, “Milrinone Composition and Method for Administering Same” (Vanderbilt University, priority 2015, published 2022)
